Experimental data taken from patent publication US20260297081A1, “COMPOUNDS AND METHODS OF TREATING CANCERS” (Cullgen Inc., priority 2023, published 2026).
Each block holds one compound with its values, some of them ahead of it.

Legend:
Assay type in all cases: cell-based
[1] = target: CDK4 (Homo sapiens, UniProt P11802+Q16531); experiment: CDK4 percentage degradation in Calu-1 cells (Table 6); set-up: Cells that express cyclin D1-3 and CDK4/6 proteins were treated with heterobifunctional compounds; endogenous in cells; host or cells: Calu-1; settings: 16 hours; for inhibition at 0.04 µM: 40 nM; for inhibition at 0.2 µM: 200 nM
How it was run: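 Percentage degradation of Cyclin D1 and CDK4 derived from densitometry of ECL Western blots on lysates of Calu-1 cells. Treatment was 16 h with compound at either 40 nM or 200 nM.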

[2] = system: Calu-1 cells; experiment: Anti-proliferation (viability) of NSCLC Calu-1 cells, 3 days (Table 7, FIG. 2B); settings: Homo sapiens, 72 h; Calu-1 cells, 3 days, 10-point serial dilution; read-out: GI IC50 in Calu-1
How it was run: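 Cells were exposed to heterobifunctional compounds across a 10-point serial dilution, for 3 days with Calu-1 and 6 days with T47D. A negative control was included that keeps the DDB1 ligand and linker but carries a modified warhead that impairs CDK4 binding.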

[3] = system: MCF7 cells; experiment: Anti-proliferation (viability) of MCF7 cells (Table 7, FIG. 2B); settings: Homo sapiens, MCF7, MCF7 cells, 3-6 days, 10-point serial dilution; read-out: GI IC50 in MCF-7

Sequence of CDK4 (P11802 2-303 limits assumed): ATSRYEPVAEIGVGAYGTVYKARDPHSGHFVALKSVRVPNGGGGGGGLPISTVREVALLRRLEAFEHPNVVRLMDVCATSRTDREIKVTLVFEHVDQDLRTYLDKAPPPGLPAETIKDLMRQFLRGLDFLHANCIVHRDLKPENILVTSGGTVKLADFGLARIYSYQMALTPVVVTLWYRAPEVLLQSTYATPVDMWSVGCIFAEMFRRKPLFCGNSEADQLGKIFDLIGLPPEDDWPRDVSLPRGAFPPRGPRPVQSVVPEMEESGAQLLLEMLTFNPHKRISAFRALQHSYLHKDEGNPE
Sequence of CDK4 (P24385 whole entry partner): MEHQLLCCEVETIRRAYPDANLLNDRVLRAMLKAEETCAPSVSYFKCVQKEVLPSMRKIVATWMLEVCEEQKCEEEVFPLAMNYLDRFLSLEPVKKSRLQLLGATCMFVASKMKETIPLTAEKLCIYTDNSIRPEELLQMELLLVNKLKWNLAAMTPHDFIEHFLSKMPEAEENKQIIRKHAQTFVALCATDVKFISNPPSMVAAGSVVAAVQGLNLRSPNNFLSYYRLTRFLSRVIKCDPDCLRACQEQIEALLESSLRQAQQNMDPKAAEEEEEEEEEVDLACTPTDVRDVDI
Sequence of CDK4 (Q16531 2-1140 limits assumed): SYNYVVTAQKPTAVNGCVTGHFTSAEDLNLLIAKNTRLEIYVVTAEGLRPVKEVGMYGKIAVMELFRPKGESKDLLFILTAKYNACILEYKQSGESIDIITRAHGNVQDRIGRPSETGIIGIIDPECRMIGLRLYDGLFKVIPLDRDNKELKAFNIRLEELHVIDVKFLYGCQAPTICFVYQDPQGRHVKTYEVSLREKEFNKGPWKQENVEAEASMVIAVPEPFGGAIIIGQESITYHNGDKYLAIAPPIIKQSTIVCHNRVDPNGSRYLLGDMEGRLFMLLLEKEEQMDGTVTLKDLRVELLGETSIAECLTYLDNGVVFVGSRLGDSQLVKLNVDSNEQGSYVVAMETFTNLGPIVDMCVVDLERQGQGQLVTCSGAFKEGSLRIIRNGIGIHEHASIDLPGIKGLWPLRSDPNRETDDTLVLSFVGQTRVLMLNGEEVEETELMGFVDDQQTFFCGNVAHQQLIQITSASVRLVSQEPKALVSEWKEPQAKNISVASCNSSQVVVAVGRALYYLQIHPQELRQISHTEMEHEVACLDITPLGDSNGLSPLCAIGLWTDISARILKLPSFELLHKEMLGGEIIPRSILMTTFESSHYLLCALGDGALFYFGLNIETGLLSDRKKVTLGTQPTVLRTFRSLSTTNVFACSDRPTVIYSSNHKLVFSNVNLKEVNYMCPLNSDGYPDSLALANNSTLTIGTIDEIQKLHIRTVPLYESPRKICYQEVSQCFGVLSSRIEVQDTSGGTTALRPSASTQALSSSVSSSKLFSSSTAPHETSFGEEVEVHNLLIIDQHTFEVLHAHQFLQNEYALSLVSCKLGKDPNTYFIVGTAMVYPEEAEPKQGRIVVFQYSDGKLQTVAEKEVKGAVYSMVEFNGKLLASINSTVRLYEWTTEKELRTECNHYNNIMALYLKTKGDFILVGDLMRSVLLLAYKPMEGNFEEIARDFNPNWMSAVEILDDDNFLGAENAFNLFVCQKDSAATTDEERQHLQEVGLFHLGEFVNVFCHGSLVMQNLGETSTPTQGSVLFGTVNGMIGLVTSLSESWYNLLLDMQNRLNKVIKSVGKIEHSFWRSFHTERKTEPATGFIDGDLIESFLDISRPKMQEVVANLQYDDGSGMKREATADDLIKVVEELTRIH

SMILES: CNc1ccc(C(=O)Nc2ccc(N(C)C)nn2)c(NC2CC3(CC(NC(=O)C(C)(C)N4CCN(c5ccc(Nc6ncc7c(C)c(C(C)=O)c(=O)n(C8CCCC8)c7n6)nc5)CC4)C3)C2)n1 (stereo not drawn) [CPD-174, 2-((6-(2-(4-(6-((6-acetyl-8-cyclopentyl-5-methyl-7-oxo-7,8-dihydropyrido[2,3-d]pyrimidin-2-yl)amino)pyridin-3-yl)piperazin-1-yl)-2-methylpropanamido)spiro[3.3]heptan-2-yl)amino)-N-(6-(dimethylamino)pyridazin-3-yl)-6-(methylamino)nicotinamide]
inhibition at 0.04 µM [1]: 50 to 80%
inhibition at 0.2 µM [1]: > 80%
IC50 [2]: 10 to 50 nM
IC50 [3]: > 100 nM

SMILES: CNc1ccc(C(=O)Nc2ccc(N(C)C)nn2)c(NC2CC(OCCC(=O)N3CCN(c4ccc(Nc5ncc6c(C)c(C(C)=O)c(=O)n(C7CCCC7)c6n5)nc4)CC3)C2)n1 (stereo not drawn) [CPD-178, 2-((3-(3-(4-(6-((6-acetyl-8-cyclopentyl-5-methyl-7-oxo-7,8-dihydropyrido[2,3-d]pyrimidin-2-yl)amino)pyridin-3-yl)piperazin-1-yl)-3-oxopropoxy)cyclobutyl)amino)-N-(6-(dimethylamino)pyridazin-3-yl)-6-(methylamino)nicotinamide]
inhibition at 0.04 µM [1]: 50 to 80%
inhibition at 0.2 µM [1]: 50 to 80%
IC50 [2]: ≤ 10 nM
IC50 [3]: 50 to 100 nM

SMILES: CNc1ccc(C(=O)Nc2ccc(N(C)C)nn2)c(NC2CC3(C2)CC(OC(C)C(=O)N2CCN(c4ccc(Nc5ncc6c(C)c(C(C)=O)c(=O)n(C7CCCC7)c6n5)nc4)CC2)C3)n1 (stereo not drawn) [CPD-189, 2-((6-((1-(4-(6-((6-acetyl-8-cyclopentyl-5-methyl-7-oxo-7,8-dihydropyrido[2,3-d]pyrimidin-2-yl)amino)pyridin-3-yl)piperazin-1-yl)-1-oxopropan-2-yl)oxy)spiro[3.3]heptan-2-yl)amino)-N-(6-(dimethylamino)pyridazin-3-yl)-6-(methylamino)nicotinamide]
inhibition at 0.04 µM [1]: 50 to 80%
inhibition at 0.2 µM [1]: 50 to 80%
IC50 [2]: 10 to 50 nM
IC50 [3]: > 100 nM

Continued, values first:

inhibition at 0.04 µM [1]: > 80%
inhibition at 0.2 µM [1]: > 80%
IC50 [2]: ≤ 10 nM
IC50 [3]: < 50 nM
SMILES: CNc1ccc(C(=O)Nc2cccc(C)n2)c(NC2CC3(C2)CN(C(=O)C2(CN4CCN(c5ccc(Nc6ncc7c(C)c(C(C)=O)c(=O)n(C8CCCC8)c7n6)nc5)CC4)CC2)C3)n1 [CPD-171, 2-((2-(1-((4-(6-((6-acetyl-8-cyclopentyl-5-methyl-7-oxo-7,8-dihydropyrido[2,3-d]pyrimidin-2-yl)amino)pyridin-3-yl)piperazin-1-yl)methyl)cyclopropane-1-carbonyl)-2-azaspiro[3.3]heptan-6-yl)amino)-6-(methylamino)-N-(6-methylpyridin-2-yl)nicotinamide]

inhibition at 0.04 µM [1]: > 80%
inhibition at 0.2 µM [1]: > 80%
IC50 [2]: ≤ 10 nM
IC50 [3]: < 50 nM
SMILES: CNc1ccc(C(=O)Nc2cccc(C3CC3)n2)c(NC2CC3(C2)CN(C(=O)C2(CN4CCN(c5ccc(Nc6ncc7c(C)c(C(C)=O)c(=O)n(C8CCCC8)c7n6)nc5)CC4)CC2)C3)n1 [CPD-173, 2-((2-(1-((4-(6-((6-acetyl-8-cyclopentyl-5-methyl-7-oxo-7,8-dihydropyrido[2,3-d]pyrimidin-2-yl)amino)pyridin-3-yl)piperazin-1-yl)methyl)cyclopropane-1-carbonyl)-2-azaspiro[3.3]heptan-6-yl)amino)-N-(6-cyclopropylpyridin-2-yl)-6-(methylamino)nicotinamide]

inhibition at 0.04 µM [1]: 50 to 80%
inhibition at 0.2 µM [1]: 50 to 80%
IC50 [2]: 10 to 50 nM
IC50 [3]: > 100 nM
SMILES: CNc1ccc(C(=O)Nc2ccc(N(C)C)nn2)c(NC2CN(C(=O)CCN3CCN(c4ccc(Nc5ncc6c(C)c(C(C)=O)c(=O)n(C7CCCC7)c6n5)nc4)CC3)C2)n1 [CPD-186, 2-((1-(3-(4-(6-((6-acetyl-8-cyclopentyl-5-methyl-7-oxo-7,8-dihydropyrido[2,3-d]pyrimidin-2-yl)amino)pyridin-3-yl)piperazin-1-yl)propanoyl)azetidin-3-yl)amino)-N-(6-(dimethylamino)pyridazin-3-yl)-6-(methylamino)nicotinamide]
